# Laboratory results as given in ChEMBL document CHEMBL1201862, “PubChem BioAssay data set” (2004).
# Active and inactive are the calls of the source.
# Assays:
# Protein skinhead-1 = target: T1, Protein skinhead-1 (Caenorhabditis elegans, UniProt P34707); assay type: functional
# T1 sequence (P34707 whole entry): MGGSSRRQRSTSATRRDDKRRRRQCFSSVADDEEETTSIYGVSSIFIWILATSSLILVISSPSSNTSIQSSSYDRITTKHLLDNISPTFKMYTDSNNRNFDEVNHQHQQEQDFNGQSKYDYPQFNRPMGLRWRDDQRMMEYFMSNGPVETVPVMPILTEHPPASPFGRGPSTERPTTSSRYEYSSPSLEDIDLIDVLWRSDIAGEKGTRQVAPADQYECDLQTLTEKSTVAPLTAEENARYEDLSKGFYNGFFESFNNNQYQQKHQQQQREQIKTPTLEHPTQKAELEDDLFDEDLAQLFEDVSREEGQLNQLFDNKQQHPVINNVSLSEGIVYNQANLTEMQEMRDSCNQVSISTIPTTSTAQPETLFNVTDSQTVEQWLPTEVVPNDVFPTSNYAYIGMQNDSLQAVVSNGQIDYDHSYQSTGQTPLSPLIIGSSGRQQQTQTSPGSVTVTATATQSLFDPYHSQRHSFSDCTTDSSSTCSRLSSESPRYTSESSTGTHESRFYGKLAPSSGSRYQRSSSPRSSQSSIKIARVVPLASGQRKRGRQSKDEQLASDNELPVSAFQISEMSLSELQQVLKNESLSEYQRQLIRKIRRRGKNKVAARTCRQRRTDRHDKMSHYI
# [1] = Luminescence Cell-Based Dose Retest to Confirm Inhibitors of Cancer Stem Cells. [Related pubchem assays (depositor defined):AID2717, AID2721]; assay type: functional; conditions: Homo sapiens
# [2] = target: T2, Heat shock factor protein 1 (Mus musculus, UniProt P38532); test: HSF1 potentiators in luciferase reporter cells, confirmation, cell-based, NIH3T3, luminescence, dose retest (AID 435004); assay type: functional;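 also: stress induced by proteasome inhibitor MG132 added 30 min after compound; luciferase reporter driven by HSF1 response element in NIH3T3 cells; actives raise luminescence as potentiators of the MG132 stress response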
# T2 sequence (P38532 whole entry): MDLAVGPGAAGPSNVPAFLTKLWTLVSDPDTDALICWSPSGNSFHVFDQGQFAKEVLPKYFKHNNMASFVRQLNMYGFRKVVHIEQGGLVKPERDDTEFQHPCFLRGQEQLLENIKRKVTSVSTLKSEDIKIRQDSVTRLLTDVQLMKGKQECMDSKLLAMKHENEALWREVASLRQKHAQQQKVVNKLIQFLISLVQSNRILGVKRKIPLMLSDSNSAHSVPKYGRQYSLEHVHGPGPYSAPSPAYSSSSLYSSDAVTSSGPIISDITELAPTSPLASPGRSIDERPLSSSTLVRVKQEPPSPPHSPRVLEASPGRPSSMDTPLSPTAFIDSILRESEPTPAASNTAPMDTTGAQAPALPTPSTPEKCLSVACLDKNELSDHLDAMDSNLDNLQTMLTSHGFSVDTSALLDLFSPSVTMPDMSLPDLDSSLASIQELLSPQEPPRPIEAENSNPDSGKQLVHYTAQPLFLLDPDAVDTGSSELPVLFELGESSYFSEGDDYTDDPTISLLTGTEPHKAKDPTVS
# Vero = test: cells; assay type: functional; conditions: Chlorocebus sabaeus
# [3] = target: Hepatocyte nuclear factor 4-alpha (Homo sapiens, UniProt P41235); assay type: functional, cell-based;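 also: biochemical luminescence-based dose-response counterscreen measuring inhibition of HNF4 dimerization, run alongside a screen for blockers of ABHD5–perilipin-5 interaction; split luciferase complementation of HNF4 fusion proteins in cell lysate measuring dimerization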
# Chain of Hepatocyte nuclear factor 4-alpha (P41235 whole entry, the tested form may be a part): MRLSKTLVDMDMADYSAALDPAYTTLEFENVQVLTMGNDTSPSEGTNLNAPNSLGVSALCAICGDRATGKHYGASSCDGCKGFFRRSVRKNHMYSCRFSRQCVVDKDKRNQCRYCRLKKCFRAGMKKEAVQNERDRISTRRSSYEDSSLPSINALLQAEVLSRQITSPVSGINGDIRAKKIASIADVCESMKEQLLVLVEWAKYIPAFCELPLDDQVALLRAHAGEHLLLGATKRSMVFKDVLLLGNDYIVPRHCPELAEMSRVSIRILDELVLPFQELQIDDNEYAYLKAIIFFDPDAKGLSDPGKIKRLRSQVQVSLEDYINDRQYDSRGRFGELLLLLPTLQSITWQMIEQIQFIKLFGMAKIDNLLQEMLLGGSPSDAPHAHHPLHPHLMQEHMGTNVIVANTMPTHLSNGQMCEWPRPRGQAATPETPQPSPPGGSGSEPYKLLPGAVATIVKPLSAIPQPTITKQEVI
# [4] = target: T3, Beta-2 adrenergic receptor (Homo sapiens, UniProt P07550); test: Dose response for HTS for Beta-2AR agonists via FAP method from Powderset1.; assay type: functional
# T3 sequence (P07550 whole entry): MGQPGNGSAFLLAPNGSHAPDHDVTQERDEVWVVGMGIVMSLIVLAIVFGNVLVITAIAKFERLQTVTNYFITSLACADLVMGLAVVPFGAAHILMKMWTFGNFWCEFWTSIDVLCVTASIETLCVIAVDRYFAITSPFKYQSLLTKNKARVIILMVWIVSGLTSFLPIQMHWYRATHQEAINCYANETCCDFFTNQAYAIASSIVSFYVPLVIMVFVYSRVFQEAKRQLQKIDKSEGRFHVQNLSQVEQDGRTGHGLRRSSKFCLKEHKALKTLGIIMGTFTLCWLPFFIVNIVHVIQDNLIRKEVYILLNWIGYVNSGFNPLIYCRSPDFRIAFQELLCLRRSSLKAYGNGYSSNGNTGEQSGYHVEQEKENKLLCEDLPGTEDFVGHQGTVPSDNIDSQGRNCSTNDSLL
# [5] = target: T3, Beta-2 adrenergic receptor; test: beta2AR agonists driving receptor internalization, dose response, cell-based, FAP fluorogen, flow cytometry, cherry pick 1 (AID 588763); assay type: functional
# [6] = Cytotoxicity Dose Response with AM2.2-beta2AR cells for PowderSet01.; assay type: functional, cell-based; conditions: read-out: EC50_MICROM
# [7] = target: Dual specificity protein phosphatase 3 (Homo sapiens, UniProt P51452); test: VHR phosphatase inhibition, dose response, selectivity assay for STEP inhibitor project, biochemical (AID 602374); assay type: functional; conditions: read-out: IC50_Mean
# Chain of Dual specificity protein phosphatase 3 (P51452 whole entry): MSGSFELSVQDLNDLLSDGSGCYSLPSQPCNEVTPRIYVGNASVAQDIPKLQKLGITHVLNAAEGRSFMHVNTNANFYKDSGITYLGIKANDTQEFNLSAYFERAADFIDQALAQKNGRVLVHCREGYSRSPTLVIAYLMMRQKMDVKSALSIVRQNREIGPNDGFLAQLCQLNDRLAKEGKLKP
# [8] = target: Tyrosine-protein phosphatase non-receptor type 11 (Homo sapiens, UniProt Q06124); test: SHP2 phosphatase inhibition, dose response, selectivity assay for STEP inhibitor project, biochemical (AID 602367); assay type: functional; conditions: read-out: IC50_Mean
# Chain of Tyrosine-protein phosphatase non-receptor type 11 (Q06124 whole entry): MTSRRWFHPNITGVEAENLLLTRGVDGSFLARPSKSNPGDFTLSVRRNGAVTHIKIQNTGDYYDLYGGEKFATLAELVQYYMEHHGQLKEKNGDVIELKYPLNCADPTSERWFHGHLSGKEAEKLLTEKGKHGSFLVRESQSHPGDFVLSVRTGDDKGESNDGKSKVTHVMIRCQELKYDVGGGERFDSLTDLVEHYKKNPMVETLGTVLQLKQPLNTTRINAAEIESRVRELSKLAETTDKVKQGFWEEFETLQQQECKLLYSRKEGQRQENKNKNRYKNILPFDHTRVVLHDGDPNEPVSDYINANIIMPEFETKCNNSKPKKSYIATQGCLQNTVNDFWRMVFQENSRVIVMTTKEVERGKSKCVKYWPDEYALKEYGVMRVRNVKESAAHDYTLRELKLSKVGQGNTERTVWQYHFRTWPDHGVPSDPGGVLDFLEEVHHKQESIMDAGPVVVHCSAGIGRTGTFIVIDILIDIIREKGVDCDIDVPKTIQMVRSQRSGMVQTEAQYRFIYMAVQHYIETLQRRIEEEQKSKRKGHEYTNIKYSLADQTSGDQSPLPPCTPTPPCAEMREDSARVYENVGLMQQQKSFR
# [9] = target: T4, Tyrosine-protein phosphatase non-receptor type 22 (Homo sapiens, UniProt Q9Y2R2); test: PTPN22 phosphatase inhibition, dose response, selectivity assay for STEP inhibitor project, biochemical (AID 624241); assay type: functional
# T4 sequence (Q9Y2R2 whole entry): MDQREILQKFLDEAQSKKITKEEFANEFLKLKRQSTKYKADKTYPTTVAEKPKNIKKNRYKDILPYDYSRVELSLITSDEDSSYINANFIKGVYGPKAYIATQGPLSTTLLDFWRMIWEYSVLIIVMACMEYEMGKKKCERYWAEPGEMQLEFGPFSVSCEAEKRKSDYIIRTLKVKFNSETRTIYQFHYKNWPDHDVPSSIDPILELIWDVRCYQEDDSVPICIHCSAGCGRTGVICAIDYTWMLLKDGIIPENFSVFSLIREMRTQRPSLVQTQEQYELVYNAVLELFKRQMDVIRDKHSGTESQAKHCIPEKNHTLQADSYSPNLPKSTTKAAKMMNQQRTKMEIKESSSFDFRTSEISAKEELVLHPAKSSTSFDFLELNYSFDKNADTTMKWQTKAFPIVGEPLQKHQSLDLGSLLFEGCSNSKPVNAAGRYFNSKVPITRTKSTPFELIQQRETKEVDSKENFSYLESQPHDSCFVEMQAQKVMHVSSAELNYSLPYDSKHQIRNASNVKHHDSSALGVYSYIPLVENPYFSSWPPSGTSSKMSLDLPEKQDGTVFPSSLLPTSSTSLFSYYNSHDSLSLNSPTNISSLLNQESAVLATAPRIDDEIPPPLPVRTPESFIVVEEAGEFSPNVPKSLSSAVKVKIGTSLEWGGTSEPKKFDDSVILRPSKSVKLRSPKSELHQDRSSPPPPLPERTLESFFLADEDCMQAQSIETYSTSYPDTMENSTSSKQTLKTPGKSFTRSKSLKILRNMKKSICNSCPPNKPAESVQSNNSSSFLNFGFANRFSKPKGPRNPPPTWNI
# [10] = target: Glucose-6-phosphate 1-dehydrogenase (Homo sapiens, UniProt P11413); test: human G6PD enzyme inhibitors, dose response, selectivity assay for P. falciparum G6PD inhibitor project, biochemical, fluorescence (AID 504792); assay type: functional
# Chain of Glucose-6-phosphate 1-dehydrogenase (P11413 whole entry): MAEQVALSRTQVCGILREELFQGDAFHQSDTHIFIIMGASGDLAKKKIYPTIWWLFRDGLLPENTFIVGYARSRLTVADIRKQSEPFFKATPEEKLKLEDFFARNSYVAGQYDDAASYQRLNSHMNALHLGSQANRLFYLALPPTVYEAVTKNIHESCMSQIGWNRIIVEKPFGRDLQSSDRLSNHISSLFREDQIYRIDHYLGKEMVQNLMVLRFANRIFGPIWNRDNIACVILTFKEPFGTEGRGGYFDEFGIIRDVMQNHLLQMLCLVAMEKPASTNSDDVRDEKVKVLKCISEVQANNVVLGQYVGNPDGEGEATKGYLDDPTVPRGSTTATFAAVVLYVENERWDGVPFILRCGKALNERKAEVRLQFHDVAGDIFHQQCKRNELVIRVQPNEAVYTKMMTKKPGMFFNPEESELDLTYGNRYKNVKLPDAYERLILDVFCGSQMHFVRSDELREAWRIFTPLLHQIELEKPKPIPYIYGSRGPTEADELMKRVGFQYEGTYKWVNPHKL
# [11] = target: Tyrosine-protein phosphatase non-receptor type 5 (Homo sapiens, UniProt P54829); test: STEP phosphatase inhibitors, confirmation, biochemical, fluorescence intensity, uHTS hits (AID 602372); assay type: functional; conditions: read-out: IC50_Mean
# Chain of Tyrosine-protein phosphatase non-receptor type 5 (P54829 whole entry): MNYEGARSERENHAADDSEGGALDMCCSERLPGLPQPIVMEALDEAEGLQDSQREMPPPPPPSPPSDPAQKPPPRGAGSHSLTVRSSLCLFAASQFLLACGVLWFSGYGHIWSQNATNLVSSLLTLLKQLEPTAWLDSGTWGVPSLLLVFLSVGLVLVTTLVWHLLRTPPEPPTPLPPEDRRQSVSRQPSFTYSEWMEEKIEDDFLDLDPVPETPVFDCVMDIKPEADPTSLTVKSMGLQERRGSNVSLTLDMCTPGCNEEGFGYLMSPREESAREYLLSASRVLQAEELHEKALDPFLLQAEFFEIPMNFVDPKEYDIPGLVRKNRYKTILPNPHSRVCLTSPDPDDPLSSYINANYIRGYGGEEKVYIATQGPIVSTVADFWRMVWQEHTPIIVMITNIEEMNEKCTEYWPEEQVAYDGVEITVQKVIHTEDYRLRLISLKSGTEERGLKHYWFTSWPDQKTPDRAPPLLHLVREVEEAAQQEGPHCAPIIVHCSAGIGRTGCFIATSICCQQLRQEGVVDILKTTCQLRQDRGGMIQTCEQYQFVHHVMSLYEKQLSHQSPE
# Nonstructural protein 1 = Nonstructural protein 1 (Influenza A virus, UniProt Q194T2); assay type: functional, Influenza A virus (A/California/07/2009(H1N1))
# Chain of Nonstructural protein 1 (Q194T2 whole entry): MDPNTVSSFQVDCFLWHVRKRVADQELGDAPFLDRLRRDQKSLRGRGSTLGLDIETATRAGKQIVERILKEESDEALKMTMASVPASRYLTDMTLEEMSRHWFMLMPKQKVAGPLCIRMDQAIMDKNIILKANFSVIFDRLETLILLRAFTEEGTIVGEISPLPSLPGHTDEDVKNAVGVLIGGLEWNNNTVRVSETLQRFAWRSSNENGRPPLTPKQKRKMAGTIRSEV
# [12] = tested on: Streptococcus sp. 'group A'; test: growth inhibition of control SK(-) GAS strain, dose response, counter-screen for streptokinase expression inhibitor project, luminescence, kanamycin, BacTiterGlo, confirmation (AID 1900); assay type: functional, organism-based
# [13] = target: Photoreceptor-specific nuclear receptor (Homo sapiens, UniProt Q9Y5X4); assay type: functional, cell-based;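 also: CHO-S cells with Gal4-NCOR and VP16-NR2E3 two-hybrid luciferase reporter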
# Chain of Photoreceptor-specific nuclear receptor (Q9Y5X4 whole entry, the tested form may be a part): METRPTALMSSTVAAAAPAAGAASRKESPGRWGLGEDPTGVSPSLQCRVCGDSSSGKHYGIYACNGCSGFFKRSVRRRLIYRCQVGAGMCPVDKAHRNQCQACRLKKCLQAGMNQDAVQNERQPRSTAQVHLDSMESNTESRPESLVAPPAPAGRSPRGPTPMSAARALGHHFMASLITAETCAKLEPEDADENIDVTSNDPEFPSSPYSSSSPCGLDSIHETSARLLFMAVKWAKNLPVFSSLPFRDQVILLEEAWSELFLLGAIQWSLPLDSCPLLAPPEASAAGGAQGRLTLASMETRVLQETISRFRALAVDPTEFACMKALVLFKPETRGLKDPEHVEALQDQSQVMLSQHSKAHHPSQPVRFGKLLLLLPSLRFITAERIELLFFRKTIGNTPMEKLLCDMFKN
# [14] = HepG2 cell cytotoxicity, dose response, cytotoxicity control for Shn3 inhibitor project, CellTiter-Glo, cherry-picked (AID 624134); assay type: functional, cell-based
# [15] = Shn3 3'UTR reporter inhibitors, dose response, cell-based, Clone20 osteoblasts, firefly luciferase, cherry-picked (AID 624132); assay type: functional;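 also: firefly luciferase luminescence from reporter carrying the Shn3 3'UTR in osteoblasts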
# [16] = control 3'UTR Renilla luciferase suppression, dose response, counter-screen for Shn3 inhibitor project, cell-based, Clone20-Shn3RL, cherry-picked (AID 624133); assay type: functional
# INS1 = test: beta cell apoptosis inhibitors, cytokine rescue, dose response, luminescence, retest (AID 449756); assay type: functional, cell-based; conditions: Rattus norvegicus;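 also: cell death triggered by IL-1 beta plus TNF-alpha plus IFN-gamma mixture; protective hits raise ATP signal compared with cytokine alone wells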
# Streptokinase A = target: T5, Streptokinase A (Streptococcus pyogenes serotype M1, UniProt P10520); test: S. pyogenes streptokinase expression inhibitors, potency, dose response, plasminogen activation absorbance, OD405 (AID 1914); assay type: functional, Streptococcus pyogenes M1 GAS;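 also: secreted streptokinase activity via plasminogen activation per viability signal from cell pellet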
# T5 sequence (P10520 whole entry): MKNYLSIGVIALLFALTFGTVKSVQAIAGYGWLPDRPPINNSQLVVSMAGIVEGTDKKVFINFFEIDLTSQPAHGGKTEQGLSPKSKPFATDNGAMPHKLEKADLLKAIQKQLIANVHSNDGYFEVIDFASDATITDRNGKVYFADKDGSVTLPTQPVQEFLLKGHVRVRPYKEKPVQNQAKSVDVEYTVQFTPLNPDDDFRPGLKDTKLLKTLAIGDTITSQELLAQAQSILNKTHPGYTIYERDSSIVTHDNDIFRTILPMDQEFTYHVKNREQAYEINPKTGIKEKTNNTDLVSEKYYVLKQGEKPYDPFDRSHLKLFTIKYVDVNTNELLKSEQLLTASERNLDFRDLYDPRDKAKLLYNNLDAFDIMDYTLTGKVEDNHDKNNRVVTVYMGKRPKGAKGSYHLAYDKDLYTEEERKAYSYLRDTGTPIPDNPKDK
# Streptococcus = test: Group A Streptococcus viability loss, dose response, counter-screen for streptokinase expression inhibitor project, luminescence, BacTiterGlo (AID 1915); assay type: functional, organism-based;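 also: potency for reduction of bacterial viability or growth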
compound,measurement,setting,value
O=C(/C=C/Sc1ccccc1)c1ccc(Cl)cc1,IC50,Protein skinhead-1,31 µM (active)
same,AC50,[1],3.46 µM (active)
same,EC50,[2],9.05 µM (active)
same,CC50,Vero,14.2 µM (active)
same,IC50,[3],6.31 µM (active)
O=C(Nc1ccc(S(=O)(=O)N2CCCCC2c2cccnc2)cc1)c1c(F)cccc1F (configuration not stated),EC50,[4],0.119 µM (active)
same,EC50,[5],2.46 µM (active)
same,EC50,[6],5.39 µM (active)
Cc1cc(C)c(NC(S)=NCC2CCN(C(C)c3ccccc3)C2)c(C)c1 (configuration not stated),IC50,[7],0.343 µM (active)
same,IC50,[8],0.934 µM (active)
same,IC50,[9],48.4 µM (inactive)
same,IC50,[10],> 80 µM (inactive)
same,IC50,[11],6.09 µM (active)
CC(C)(C)Nc1nc(-c2ccccn2)nc2ccccc12,IC50,Nonstructural protein 1,12.2 µM (active)
same,EC50,[12],2.48 µM (active)
same,IC50,[13],3.88 µM (active)
same,AC50,[14],> 70 µM (inactive)
same,AC50,[15],1.86 µM (active)
same,AC50,[16],1.42 µM (active)
same,AC50,INS1,2.06 µM (active)
same,EC50,Streptokinase A,> 150 µM (not active)
same,EC50,Streptococcus,5.93 µM (active)
